The assay addresses T1, F508delCFTR cell surface expression in CFBE41o-F508delCFTR-HRP cells (Homo sapiens, UniProt P13569, DEL508-508).
T1 construct: fused on or other part: Horseradish peroxidase (HRP) reporter inserted in the fourth exofacial (extracellular) loop of CFTR; expression is doxycycline-inducible
The assay is described as follows: Cell Surface Expression-Horse Radish Peroxidase (CSE-HRP) Assay. The note with it: for EC50: CFBE41o-F508delCFTR-HRP cells, 18-24 hours at 33° C., 8-point curve, highest concentration 20 μM; for Maximum % activity (%): maximum at any tested concentration, normalized to on-plate positive control (3 μM). The assay is classed as cell-based. The method in brief:
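CFBE41o- cells with HRP-tagged F508delCFTR, expression induced by 0.5 μg/mL doxycycline for 72 h at 37 °C, then compound for 18-24 h at 33 °C (8-point, 3-fold, top 20 μM). Surface HRP measured by luminol luminescence; % activity normalised to 3 μM positive-control corrector; EC50 from variable-slope sigmoidal fit, three replicate plates.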

T1 sequence (P13569 with tags, fused parts or gaps DEL508-508 limits assumed): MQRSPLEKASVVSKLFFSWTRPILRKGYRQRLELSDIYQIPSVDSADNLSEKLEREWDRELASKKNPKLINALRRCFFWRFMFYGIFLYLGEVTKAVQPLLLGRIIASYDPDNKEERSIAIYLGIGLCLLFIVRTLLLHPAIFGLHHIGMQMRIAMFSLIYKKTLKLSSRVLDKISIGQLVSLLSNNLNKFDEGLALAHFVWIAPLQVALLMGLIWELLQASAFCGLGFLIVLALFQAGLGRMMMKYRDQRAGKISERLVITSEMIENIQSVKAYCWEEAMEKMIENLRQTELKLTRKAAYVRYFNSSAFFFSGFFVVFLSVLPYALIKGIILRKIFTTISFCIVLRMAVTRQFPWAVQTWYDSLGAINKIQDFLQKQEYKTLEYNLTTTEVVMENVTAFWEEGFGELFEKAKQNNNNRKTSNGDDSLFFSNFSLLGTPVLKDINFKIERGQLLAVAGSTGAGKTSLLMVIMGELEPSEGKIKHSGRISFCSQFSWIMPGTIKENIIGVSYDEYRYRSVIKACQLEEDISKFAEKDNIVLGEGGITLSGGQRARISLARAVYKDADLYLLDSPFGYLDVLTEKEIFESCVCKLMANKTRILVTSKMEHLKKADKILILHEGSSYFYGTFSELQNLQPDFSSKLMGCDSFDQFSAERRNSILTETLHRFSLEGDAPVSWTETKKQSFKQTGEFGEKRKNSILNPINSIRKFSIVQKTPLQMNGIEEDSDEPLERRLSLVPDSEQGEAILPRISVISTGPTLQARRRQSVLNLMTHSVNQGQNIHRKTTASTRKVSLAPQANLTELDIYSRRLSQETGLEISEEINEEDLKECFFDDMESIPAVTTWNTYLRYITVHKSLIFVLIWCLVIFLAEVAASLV
T1 sequence (P13569 919-1480 limits assumed, stated change not applied): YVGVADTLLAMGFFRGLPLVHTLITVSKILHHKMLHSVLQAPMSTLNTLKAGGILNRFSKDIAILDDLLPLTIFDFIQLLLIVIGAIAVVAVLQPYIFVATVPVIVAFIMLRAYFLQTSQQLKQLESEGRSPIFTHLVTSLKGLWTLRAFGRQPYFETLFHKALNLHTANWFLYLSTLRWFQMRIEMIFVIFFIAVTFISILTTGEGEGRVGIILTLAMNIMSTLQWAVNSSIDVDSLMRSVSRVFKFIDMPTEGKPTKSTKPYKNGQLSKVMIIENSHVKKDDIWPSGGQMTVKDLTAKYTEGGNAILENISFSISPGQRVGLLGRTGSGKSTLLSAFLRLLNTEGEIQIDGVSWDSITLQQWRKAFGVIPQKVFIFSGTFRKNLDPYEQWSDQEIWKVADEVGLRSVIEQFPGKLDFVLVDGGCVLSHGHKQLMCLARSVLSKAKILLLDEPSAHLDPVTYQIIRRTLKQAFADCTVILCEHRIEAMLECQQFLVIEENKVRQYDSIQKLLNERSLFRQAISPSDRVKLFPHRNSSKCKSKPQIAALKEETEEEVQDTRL

The EC50 is the concentration needed to bring the measured effect to its halfway point. With `CCOC(=O)C1([C@@H]2C[C@H](NC(=O)[C@@]3(C)COc4cc5c(cc43)OC(F)(F)O5)c3ccc(OC(F)(F)F)cc3O2)CC1` [Example 165, ethyl 1-[(2S,4S)-4-{[(7R)-2,2-difluoro-7-methyl-6,7-dihydro-2H-furo[2,3-f][1,3]benzodioxole-7-carbonyl]amino}-7-(trifluoromethoxy)-3,4-dihydro-2H-1-benzopyran-2-yl]cyclopropane-1-carboxylate], the midpoint of the response, the EC50, lay at 2.64 µM and the “Maximum % activity (%)” value is 85%.

Consider `COc1ccc2c(c1)O[C@@H](c1cccc(C(=O)O)c1)C[C@H]2NC(=O)[C@@]1(C)CCc2cc3c(cc21)OC(F)(F)O3` (single isomer, unassigned) [Example 57], for which the EC50 was determined as 1.77 µM and the “Maximum % activity (%)” value was 99%.

As for `Cc1ccc(NC(=O)C2(C)COc3cc4c(cc32)OC(F)(F)O4)cc1-c1cccc(C(=O)O)c1` (stereo not drawn) [Example 60, 5′-[(2,2-difluoro-7-methyl-6,7-dihydro-2H-furo[2,3-f][1,3]benzodioxole-7-carbonyl)amino]-2′-methyl[1,1′-biphenyl]-3-carboxylic acid], it took 0.63 µM to reach a half-maximal effect (EC50) and the “Maximum % activity (%)” value is recorded as 152%.

Consider `CC(C)(C)c1cc2cc(NC(=O)[C@@]3(C)COc4cc5c(cc43)OC(F)(F)O5)ccc2[nH]1` [Example 131, (7R)—N-(2-tert-butyl-1H-indol-5-yl)-2,2-difluoro-7-methyl-6,7-dihydro-2H-furo[2,3-f][1,3]benzodioxole-7-carboxamide], for which the half-maximal effective concentration (EC50) was determined as 1.31 µM and the “Maximum % activity (%)” value amounted to 173%.

As to `COC(=O)[C@H]1CN(c2cccc(NC(=O)[C@@]3(C)COc4cc5c(cc43)OC(F)(F)O5)n2)C[C@@H]1c1ccccc1` [Example 112, methyl (3R,4S)-1-(6-{[(7R)-2,2-difluoro-7-methyl-6,7-dihydro-2H-furo[2,3-f][1,3]benzodioxole-7-carbonyl]amino}pyridin-2-yl)-4-phenylpyrrolidine-3-carboxylate], the 50% effective concentration (EC50) came to 0.99 µM and the “Maximum % activity (%)” value was 131%.

Consider `C[C@]1(C(=O)N[C@@H]2C[C@H](C3CCC(CO)(C(=O)O)CC3)Oc3cc(OC(F)(F)F)ccc32)COc2cc3c(cc21)OC(F)(F)O3` (stereo partly drawn) [Example 288, 4-[(2R,4R)-4-{[(7R)-2,2-difluoro-7-methyl-6,7-dihydro-2H-furo[2,3-f][1,3]benzodioxole-7-carbonyl]amino}-7-(trifluoromethoxy)-3,4-dihydro-2H-1-benzopyran-2-yl]-1-(hydroxymethyl)cyclohexane-1-carboxylic acid], for which it took 0.29 µM to reach a half-maximal effect (EC50) and the “Maximum % activity (%)” value was 138%.

As to `C[C@]1(C(=O)Nc2cccc(-c3cccc(C(=O)O)c3)n2)COc2cc3c(cc21)OC(F)(F)O3` [Example 73, 3-(6-{[(7R)-2,2-difluoro-7-methyl-6,7-dihydro-2H-furo[2,3-f][1,3]benzodioxole-7-carbonyl]amino}pyridin-2-yl)benzoic acid], the EC50 was found to be 2.65 µM and the “Maximum % activity (%)” value was found to be 117%.

As to `C[C@]1(C(=O)Nc2cccc(N3CC[C@H](O)C3)n2)COc2cc3c(cc21)OC(F)(F)O3` [Example 88, (7R)-2,2-difluoro-N-{6-[(3S)-3-hydroxypyrrolidin-1-yl]pyridin-2-yl}-7-methyl-6,7-dihydro-2H-furo[2,3-f][1,3]benzodioxole-7-carboxamide], the concentration for a half-maximal effect (EC50) worked out at 0.73 µM and the “Maximum % activity (%)” value is on record as 113%.

In the case of `COC(=O)[C@@H]1CCN(c2cccc(NC(=O)C3(C)COc4cc5c(cc43)OC(F)(F)O5)n2)C1` (stereo partly drawn) [Example 7, methyl (3R)-1-{6-[(2,2-difluoro-7-methyl-6,7-dihydro-2H-furo[2,3-f][1,3]benzodioxole-7-carbonyl)amino]pyridin-2-yl}pyrrolidine-3-carboxylate], the response was half-maximal at 3.77 µM (EC50) and the “Maximum % activity (%)” value is 124%.

Values taken from patent publication US9840513B2 (AbbVie S.à.r.l., priority 2015, dated 2017).
